This is an account of results in the Kinase Knowledgebase extract (Sharma et al. 2016).

SMILES strings stand for the structures.

Chain of PIK3CA (human) (P42336 whole entry, looked up): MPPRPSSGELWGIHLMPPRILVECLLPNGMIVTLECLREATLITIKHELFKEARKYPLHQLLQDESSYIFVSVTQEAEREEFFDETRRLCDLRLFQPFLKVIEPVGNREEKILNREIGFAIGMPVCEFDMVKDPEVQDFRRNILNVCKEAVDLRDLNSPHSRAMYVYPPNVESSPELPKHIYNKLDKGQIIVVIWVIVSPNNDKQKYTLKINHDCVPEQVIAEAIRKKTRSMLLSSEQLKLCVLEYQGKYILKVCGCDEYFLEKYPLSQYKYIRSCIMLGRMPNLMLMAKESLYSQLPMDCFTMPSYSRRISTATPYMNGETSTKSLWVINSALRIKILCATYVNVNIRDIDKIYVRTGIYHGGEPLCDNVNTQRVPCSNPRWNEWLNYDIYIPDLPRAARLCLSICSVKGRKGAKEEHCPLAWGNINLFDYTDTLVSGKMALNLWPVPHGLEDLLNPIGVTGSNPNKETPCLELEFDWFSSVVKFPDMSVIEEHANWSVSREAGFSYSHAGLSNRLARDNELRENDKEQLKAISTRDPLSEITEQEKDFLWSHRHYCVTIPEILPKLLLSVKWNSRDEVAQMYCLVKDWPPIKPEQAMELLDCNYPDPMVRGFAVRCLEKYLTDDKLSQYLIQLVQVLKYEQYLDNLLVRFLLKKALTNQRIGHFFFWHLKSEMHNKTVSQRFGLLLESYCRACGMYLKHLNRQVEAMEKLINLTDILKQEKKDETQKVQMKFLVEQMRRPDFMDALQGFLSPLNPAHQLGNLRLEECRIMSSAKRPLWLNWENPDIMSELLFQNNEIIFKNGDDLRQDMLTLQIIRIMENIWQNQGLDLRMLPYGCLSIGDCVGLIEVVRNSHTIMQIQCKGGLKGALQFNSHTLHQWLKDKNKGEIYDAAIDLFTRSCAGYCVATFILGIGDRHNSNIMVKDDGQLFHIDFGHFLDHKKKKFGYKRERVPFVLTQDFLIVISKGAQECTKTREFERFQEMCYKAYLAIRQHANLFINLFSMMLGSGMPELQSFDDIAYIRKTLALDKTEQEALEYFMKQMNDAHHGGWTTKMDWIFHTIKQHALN

The test has as its target PIK3CA (human) (UniProt P42336). The experiment in a line: Assessment of PIK3CA Kinase Activity.
Regarding `Nc1ccc(-c2nc(N3CCOCC3)c3sc(CN(CCO)c4ncc(C(=O)NO)cn4)cc3n2)cn1`, the IC50 (as a rule, the concentration at which inhibition is half-maximal) is below 100 nM.
Compound `CN(Cc1cc2nc(-c3cccc(C(C)(C)O)c3)nc(N3CCOCC3)c2s1)c1ncc(C(=O)NO)cn1` gave an IC50 above 10000 nM.
As to `CCN(CC)c1nc(-c2cccc3[nH]ncc23)nc2cc(CN(C)c3ncc(C(=O)NO)cn3)sc12`, the IC50 is above 10000 nM.
With `CC(=O)N1CCN(c2nc(-c3cccc4[nH]ncc34)nc3cc(CN(C)c4ncc(C(=O)NO)cn4)sc23)CC1`, the IC50 is above 10000 nM.
Compound `COc1ncc(-c2nc(N3CCOCC3)c3sc(NS(=O)(=O)c4cccc(C=CC(=O)NO)c4)cc3n2)cn1` displayed an IC50 below 100 nM.
Regarding `Nc1ccc(-c2nc(N3CCOCC3)c3sc(S(=O)(=O)Nc4ncc(C(=O)NO)cn4)cc3n2)cc1`, the IC50 is below 100 nM.
In turn, `Nc1ccc(-c2nc(N3CCOCC3)c3sc(CN(CCO)c4ncc(C(=O)NO)cn4)cc3n2)cc1` registered an IC50 below 100 nM.
Compound `CS(=O)(=O)N1CCN(Cc2cc3nc(-c4cccc5[nH]ncc45)nc(NCCCCCCC(=O)NO)c3s2)CC1` yielded an IC50 above 10000 nM.
`Nc1ncc(-c2nc(N3CCOCC3)c3sc(NS(=O)(=O)c4cccc(/C=C/C(=O)NO)c4)cc3n2)cn1` returned an IC50 below 100 nM.
The compound `CC(=NO)c1ccc(F)c(-c2nc(N3CCOCC3)c3sc(CN(C)c4ncc(C(=O)NO)cn4)cc3n2)c1` had an IC50 of 100 to 1000 nM.
As to `CS(=O)(=O)N1CCN(Cc2cc3nc(-c4cccc5c4cnn5CCCCC(=O)NO)nc(N4CCOCC4)c3s2)CC1`, the IC50 was above 10000 nM.
With `COc1ccc(-c2nc(N3CCOCC3)c3sc(S(=O)(=O)Nc4ncc(C(=O)NO)cn4)cc3n2)cn1` the figure was below 100 nM.
`CNc1ccc(-c2nc(N3CCOCC3)c3sc(C(C)(C)N(C)c4ncc(C(=O)NO)cn4)cc3n2)cn1` yielded an IC50 of 100 to 1000 nM.
`CNc1ccc(-c2nc(N3CCOCC3)c3sc(C(C)(C)Nc4ncc(C(=O)NO)cn4)cc3n2)cn1` returned an IC50 below 100 nM.
`CS(=O)(=O)N1CCN(Cc2cc3nc(-c4ccc(OCCCCCC(=O)NO)cc4)nc(N4CCOCC4)c3s2)CC1` had an IC50 of 100 to 1000 nM.
With `COc1ccc(-c2nc(N3CCOCC3)c3sc(NS(=O)(=O)c4ccc(C=CC(=O)NO)cc4)cc3n2)cn1` the figure was 100 to 1000 nM.
`CNc1ccc(-c2nc(N3CCOCC3)c3sc(CN(C)Cc4nc5cc(C=CC(=O)NO)ccc5n4C)cc3n2)cn1` had an IC50 below 100 nM.
`Nc1ncc(-c2nc(N3CCOCC3)c3sc(NCCCCCC(=O)NO)cc3n2)cn1` gave an IC50 below 100 nM.
`COc1ccc(Nc2nc(-c3cccc4[nH]ncc34)nc3cc(CN(C)c4ncc(C(=O)NO)cn4)sc23)cc1` showed a half-inhibitory concentration (IC50) above 10000 nM.
With `CN(Cc1cc2nc(-c3ccc4c(c3)CC(=O)N4)nc(N3CCOCC3)c2s1)c1ncc(C(=O)NO)cn1`, the IC50 is above 10000 nM.
In turn, `CN(Cc1cc2nc(-c3ccc(N)cc3Cl)nc(N3CCOCC3)c2s1)c1ncc(C(=O)NO)cn1` registered an IC50 below 100 nM.
With `Cc1ncc(-c2nc(N3CCOCC3)c3sc(NCCCCC(=O)NO)cc3n2)cn1` the figure was below 100 nM.
For the compound `CNCCOc1ccc(-c2nc(N3CCOCC3)c3sc(CN(C)c4ncc(C(=O)NO)cn4)cc3n2)cn1`, the IC50 is above 10000 nM.
Regarding `CS(=O)(=O)N1CCN(Cc2cc3nc(-c4cccc5c4cnn5CCCCCCC(=O)NO)nc(N4CCOCC4)c3s2)CC1`, the IC50 is above 10000 nM.
Compound `CN(Cc1cc2nc(-c3cccc4[nH]c(=O)sc34)nc(N3CCOCC3)c2s1)c1ncc(C(=O)NO)cn1` gave an IC50 below 100 nM.
The result for `COc1ncc(-c2nc(N3CCOCC3)c3sc(C(C)(C)N(C)c4ncc(C(=O)NO)cn4)cc3n2)cn1` reads 100 to 1000 nM; that for `CS(=O)(=O)N1CCN(Cc2cc3nc(-c4ccc(OCCCCCCC(=O)NO)cc4)nc(N4CCOCC4)c3s2)CC1`, 100 to 1000 nM.
`COc1ncc(-c2nc(N3CCOCC3)c3sc(C(C)N(C)c4ncc(C(=O)NO)cn4)cc3n2)cn1` (stereo unspecified) yielded an IC50 below 100 nM.
Regarding `COc1cccc(Nc2nc(-c3cccc4[nH]ncc34)nc3cc(CN(C)c4ncc(C(=O)NO)cn4)sc23)c1`, the IC50 is above 10000 nM.
Consider `CN(Cc1cc2nc(-c3ccc([N+](=O)[O-])c(O)c3)nc(N3CCOCC3)c2s1)c1ncc(C(=O)NO)cn1`, for which the IC50 is below 100 nM.
On to `CNc1ncc(-c2nc(N3CCOCC3)c3sc(NCCCCC(=O)NO)cc3n2)cn1`, for which the IC50 was below 100 nM.
Compound `CNc1ccc(-c2nc(N3CCOCC3)c3sc(S(=O)(=O)NCC4CCN(c5ncc(C(=O)NO)cn5)CC4)cc3n2)cn1` returned an IC50 below 100 nM.
As to `CC(O)c1ccc(F)c(-c2nc(N3CCOCC3)c3sc(CN(C)c4ncc(C(=O)NO)cn4)cc3n2)c1` (stereo unspecified), the IC50 fell in the range of 100 to 1000 nM.
As for `CNc1ccc(-c2nc(N3CCOCC3)c3sc(N(C)c4ncc(C(=O)NO)cn4)cc3n2)cn1`, the IC50 is below 100 nM.
In the case of `CNc1ccc(-c2nc(N3CCOCC3)c3sc(CN(C)c4ncc(C(=O)NO)cn4)cc3n2)cc1`, the IC50 is above 10000 nM.
As to `CS(=O)(=O)N1CCN(Cc2cc3nc(-c4cccc5[nH]ncc45)nc(N4CCN(CCCCCC(=O)NO)CC4)c3s2)CC1`, the IC50 was above 10000 nM.
Take `Cn1c(CNCc2cc3nc(-c4ccc(N)cc4)nc(N4CCOCC4)c3s2)nc2cc(C=CC(=O)NO)ccc21`: the IC50 was 100 to 1000 nM.
As to `COc1ccc(-c2nc(N3CCOCC3)c3sc(Nc4ncc(C(=O)NO)cn4)cc3n2)cn1`, the IC50 is below 100 nM.
With `CCNc1ccc(-c2nc(N3CCOCC3)c3sc(CN(C)c4ncc(C(=O)NO)cn4)cc3n2)cc1` the figure was above 10000 nM.
With `COc1ccc(-c2nc(N3CCOCC3)c3sc(NCCCCC(=O)NO)cc3n2)cn1` the figure was below 100 nM; with `CN(Cc1cc2nc(-c3cccc(C(=O)O)c3)nc(N3CCOCC3)c2s1)c1ncc(C(=O)NO)cn1`, 100 to 1000 nM; with `CN(Cc1cc2nc(-c3ccc(Cl)cc3)nc(N3CCOCC3)c2s1)c1ncc(C(=O)NO)cn1`, above 10000 nM.
The compound `CN(Cc1cc2nc(-c3ccc(OCCN)nc3)nc(N3CCOCC3)c2s1)c1ncc(C(=O)NO)cn1` showed an IC50 above 10000 nM.
`CN(Cc1cc2nc(-c3ccc4c(c3)NC(=O)CO4)nc(N3CCOCC3)c2s1)c1ncc(C(=O)NO)cn1` gave an IC50 above 10000 nM.
With `CN(Cc1cc2nc(-c3cccc(SCCO)c3)nc(N3CCOCC3)c2s1)c1ncc(C(=O)NO)cn1` the figure was 100 to 1000 nM.
`CN(Cc1cc2nc(-c3cc(F)c(N)c(F)c3)nc(N3CCOCC3)c2s1)c1ncc(C(=O)NO)cn1` yielded a half-maximal inhibitory concentration (IC50) of 100 to 1000 nM.
In turn, `CN(Cc1cc2nc(-c3cccc4[nH]c(=O)[nH]c34)nc(N3CCOCC3)c2s1)c1ncc(C(=O)NO)cn1` had an IC50 of 100 to 1000 nM.
The result for `CN(C)CCOc1ccc(-c2nc(N3CCOCC3)c3sc(CN(C)c4ncc(C(=O)NO)cn4)cc3n2)cn1` reads above 10000 nM; that for `CN(Cc1cc2nc(-c3ccc(N)c(Cl)c3)nc(N3CCOCC3)c2s1)c1ncc(C(=O)NO)cn1`, 100 to 1000 nM.
For `CN(Cc1cc2nc(-c3cnn(C)c3)nc(N3CCOCC3)c2s1)c1ncc(C(=O)NO)cn1`, the IC50 lay within 100 to 1000 nM.
The compound `O=C(CCCCNc1cc2nc(-c3cc(O)ccc3F)nc(N3CCOCC3)c2s1)NO` yielded an IC50 below 100 nM.
For `CN(Cc1cc2nc(-c3ccc4c(c3)CCN4)nc(N3CCOCC3)c2s1)c1ncc(C(=O)NO)cn1`, the IC50 was above 10000 nM.
With `CN(Cc1cc2nc(-c3ccc(O)nc3)nc(N3CCOCC3)c2s1)c1ncc(C(=O)NO)cn1` the figure was 100 to 1000 nM; with `CN(Cc1cc2nc(-c3cccc4[nH]ncc34)nc(N3CCN(CCO)CC3)c2s1)c1ncc(C(=O)NO)cn1`, above 10000 nM; with `CN(Cc1cc2nc(-c3cccc4[nH]c(=S)[nH]c34)nc(N3CCOCC3)c2s1)c1ncc(C(=O)NO)cn1`, below 100 nM.
On to `Nc1ccc(-c2nc(N3CCOCC3)c3sc(C(=O)NCC4CCN(c5ncc(C(=O)NO)cn5)CC4)cc3n2)cc1`, for which the IC50 lay within 100 to 1000 nM.
The compound `CN(Cc1cc2nc(-c3cccc4c3CC(=O)N4)nc(N3CCOCC3)c2s1)c1ncc(C(=O)NO)cn1` gave an IC50 above 10000 nM.
On to `CNc1ccc(-c2nc(N3CCOCC3)c3sc(C(=O)NCC4CCN(c5ncc(C(=O)NO)cn5)CC4)cc3n2)cn1`, for which the IC50 is below 100 nM.
Regarding `CN(Cc1cc2nc(-c3ccc(OCCO)nc3)nc(N3CCOCC3)c2s1)c1ncc(C(=O)NO)cn1`, the IC50 is below 100 nM.
For `CS(=O)(=O)N1CCN(Cc2cc3nc(-c4cccc5[nH]ncc45)nc(N4CCN(CCCCC(=O)NO)CC4)c3s2)CC1`, the IC50 was above 10000 nM.
The result for `CN1CCN(c2nc(-c3cccc4[nH]ncc34)nc3cc(CN(C)c4ncc(C(=O)NO)cn4)sc23)CC1` reads above 10000 nM; that for `CN(Cc1cc2nc(-c3cccc4c3CCN4)nc(N3CCOCC3)c2s1)c1ncc(C(=O)NO)cn1`, above 10000 nM.
In the case of `Nc1ncc(-c2nc(N3CCOCC3)c3sc(NCCCCC(=O)NO)cc3n2)cn1`, the IC50 was below 100 nM.
`CN(Cc1cc2nc(-c3ccc(N)c([N+](=O)[O-])c3)nc(N3CCOCC3)c2s1)c1ncc(C(=O)NO)cn1` registered an IC50 below 100 nM.
Regarding `CC(O)c1cccc(-c2nc(N3CCOCC3)c3sc(CN(C)c4ncc(C(=O)NO)cn4)cc3n2)c1` (stereo unspecified), the IC50 is below 100 nM.
`CC(=O)NCc1ccc(-c2nc(N3CCOCC3)c3sc(CN(C)c4ncc(C(=O)NO)cn4)cc3n2)cc1` gave an IC50 above 10000 nM.
The result for `COc1ncc(-c2nc(N3CCOCC3)c3sc(CN(C)c4ncc(C(=O)NO)cn4)cc3n2)cn1` reads below 100 nM; that for `Cn1cc(-c2nc(N3CCOCC3)c3sc(CN(CCO)c4ncc(C(=O)NO)cn4)cc3n2)cn1`, 100 to 1000 nM.
`Cc1ncc(-c2nc(N3CCOCC3)c3sc(CN(CCO)c4ncc(C(=O)NO)cn4)cc3n2)s1` returned an IC50 of 100 to 1000 nM.
`Cc1ncc(-c2nc(N3CCOCC3)c3sc(CN(C)c4ncc(C(=O)NO)cn4)cc3n2)s1` showed an IC50 of 100 to 1000 nM.
In the case of `CC(C)C(=O)Nc1ccc(-c2nc(N3CCOCC3)c3sc(CN(C)c4ncc(C(=O)NO)cn4)cc3n2)cc1`, the IC50 fell in the range of 100 to 1000 nM.
With `Nc1ccc(-c2nc(N3CCOCC3)c3sc(S(=O)(=O)NCC4CCN(c5ncc(C(=O)NO)cn5)CC4)cc3n2)cc1` the figure was 100 to 1000 nM; with `CN(Cc1cc2nc(-c3ccc(C#N)cc3)nc(N3CCOCC3)c2s1)c1ncc(C(=O)NO)cn1`, above 10000 nM.
`COCCNc1nc(-c2cccc3[nH]ncc23)nc2cc(CN(C)c3ncc(C(=O)NO)cn3)sc12`: the 50% inhibitory concentration (IC50) is above 10000 nM.
`Nc1ccc(-c2nc(N3CCOCC3)c3sc(Nc4ncc(C(=O)NO)cn4)cc3n2)cc1` displayed an IC50 below 100 nM.
Turning to `CN(Cc1cc2nc(-c3cccc(NS(C)(=O)=O)c3)nc(N3CCOCC3)c2s1)c1ncc(C(=O)NO)cn1`, the IC50 was above 10000 nM.
